These results are taken from patent US8778966B2, “Quinolinone derivatives as PARP and tank inhibitors” (Janssen Pharmaceutica, NV, priority 2007, dated 2014).

Like-named read-outs stand apart in the source and are kept apart here. Where only a bound is given, the exact number is not on record here.

This assay deals with HCT116 cells. Briefly: Antiproliferative activity, Alamar Blue assay, HCT116 cells. It counts as cell-based, human. The conditions noted are these: for IC50: Homo sapiens, HCT-116, HCT116 cells, read-out: HCT116 antiproliferative activity pIC50 (converted). Set-up: key to HCT116 antiproliferative activity pIC50: pIC50 = -log IC50 (IC50: conc. reducing growth to 50% of control). In outline: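 HCT116 cells seeded, adhered 24 h, then exposed to compound for 4 days; Alamar Blue (resazurin) added for 4 h at 37 °C, fluorescence read at 540/590 nm. Viability as % of untreated control, triplicate wells; IC50 by probit analysis, reported as pIC50.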
In general terms: Resazurin is reduced to fluorescent resorufin, in cell work by metabolically active cells.

On to `CCc1cc2ccc(C(C)(C#N)Cc3cccc(C#N)n3)cc2[nH]c1=O` (single isomer, unassigned) [Compound 207], for which, under “HCT116 cells, Alamar Blue”, the “HCT116 antiproliferative activity pIC50” value came out at 7.0.

As for `CCc1cc2ccc([C@@](C)(C#N)Cc3cccc(N(C)C)c3)cc2[nH]c1=O` (single isomer, unassigned) [Compound 258], the IC50 (Alamar Blue) is 251 nM.

As for `CCc1cc2ccc([C@](C)(C#N)Cc3cccc(N(C)C)c3)cc2[nH]c1=O` (single isomer, unassigned) [Compound 259], where the note is “Alamar Blue”, the IC50 is 10000 nM.

Turning to `CCC[C@@](C#N)(Cc1ccccc1)c1ccc2cc(CC)c(=O)[nH]c2c1` (single isomer, unassigned) [Compound 263], the IC50 (Alamar Blue) was 3160 nM.

`CCC[C@](C#N)(Cc1ccccc1)c1ccc2cc(CC)c(=O)[nH]c2c1` (single isomer, unassigned) [Compound 264]: the IC50 (Alamar Blue) is 10000 nM.

For the molecule `CCc1cc2ccc([C@@](C)(C#N)Cc3cccc(C#N)c3)cc2[nH]c1=O` (single isomer, unassigned) [Compound 268], under “Alamar Blue”, the IC50 is 10000 nM.

Take `CCc1cc2ccc([C@](C)(C#N)Cc3cccc(C#N)c3)cc2[nH]c1=O` (single isomer, unassigned) [Compound 269]: for the setting “Alamar Blue”, the IC50 is 200 nM.

As for `CCc1cc2ccc([C@](C)(C#N)C[C@@H]3Cc4cc(C)ccc4O3)cc2[nH]c1=O` (single isomer, unassigned) [Compound 400], the IC50 (Alamar Blue) is 10000 nM.

As for `C#Cc1cccc(C[C@](C)(C#N)c2ccc3cc(CC)c(=O)[nH]c3c2)c1` [Compound 2], for the setting “Alamar Blue”, the IC50 is 10000 nM.

`C#Cc1cccc(C[C@@](C)(C#N)c2ccc3cc(CC)c(=O)[nH]c3c2)c1` [Compound 3]: where the note is “Alamar Blue”, the IC50 is 39.8 nM.

On to `CCc1cc2ccc(C(C#N)(CC)Cc3ccccc3)cc2[nH]c1=O` (centres unmarked) [Compound 32], for which the IC50 was 2000 nM.

Turning to `COc1ccccc1-c1nc(CC(C)(C#N)c2ccc3cc(C)c(=O)[nH]c3c2)no1` (centres unmarked) [Compound 33], the IC50 was 794 nM.

As to `Cc1cc2ccc(C(C)(C#N)Cc3cccc(C#N)c3)cc2[nH]c1=O` (centres unmarked) [Compound 34], the IC50 was 200 nM.

For `Cc1cc2ccc([C@@](C)(C#N)Cc3cccc(C#N)c3)cc2[nH]c1=O` [Compound 35], the IC50 was 7940 nM.

Turning to `Cc1cc2ccc([C@](C)(C#N)Cc3cccc(C#N)c3)cc2[nH]c1=O` [Compound 36], the IC50 was 50.1 nM.

With `Cc1cc2ccc(C(C)(C#N)Cc3cccc(Cl)c3)cc2[nH]c1=O` (centres unmarked) [Compound 37], the IC50 was 316 nM.

In the case of `CC(C)c1cc2ccc(C(C)(C#N)Cc3ccccc3)cc2[nH]c1=O` (centres unmarked) [Compound 38], the IC50 was over 10000 nM.

Take `CC(=O)c1cc2ccc(C(C)(C#N)Cc3ccccc3)cc2[nH]c1=O` (centres unmarked) [Compound 39]: the IC50 is over 10000 nM.

Consider `CCc1cc2ccc(C(C)(C#N)Cc3cccc(OC[C@@H](O)CO)c3)cc2[nH]c1=O` (some centres unmarked) [Compound 56], for which the IC50 (Alamar Blue) was 3160 nM.

On to `CCc1cc2ccc(C(C)(C#N)Cc3cccc(CCC#N)c3)cc2[nH]c1=O` (centres unmarked) [Compound 169], for which the IC50 (Alamar Blue) is 5010 nM.

Regarding `CCc1cc2ccc(C(C)(C#N)Cc3cccc(CNS(C)(=O)=O)c3)cc2[nH]c1=O` (centres unmarked) [Compound 170], the IC50 (Alamar Blue) is 5010 nM.

Consider `C=Cc1cccc(CC(C)(C#N)c2ccc3cc(CC)c(=O)[nH]c3c2)c1` (centres unmarked) [Compound 172], for which, for the setting “Alamar Blue”, the IC50 is 501 nM.

In the case of `CCc1cc2cc(F)c(C(C)(C#N)Cc3cccc(C#N)c3)cc2[nH]c1=O` (centres unmarked) [Compound 175], the IC50 (Alamar Blue) was 631 nM.

Regarding `CCc1c(C)c2ccc(C(C)(C#N)Cc3cccc(C#N)c3)cc2[nH]c1=O` (centres unmarked) [Compound 181], the IC50 (Alamar Blue) is 2510 nM.

In the case of `CCc1cc2cc(OCCOC)c(C(C)(C#N)Cc3cccc(C#N)c3)cc2[nH]c1=O` (centres unmarked) [Compound 182], the IC50 (Alamar Blue) is 6310 nM.

For the molecule `CCc1cc2ccc(C(C)(C#N)Cc3cccc(C#CCO)c3)cc2[nH]c1=O` (centres unmarked) [Compound 183], the IC50 (Alamar Blue) was 63.1 nM.

On to `CCc1cc2ccc(C(F)(C#N)Cc3ccccc3)cc2[nH]c1=O` (centres unmarked) [Compound 187], for which the IC50 (Alamar Blue) is 3160 nM.

For `CCc1cc2ccc(C(C)(C#N)CN(C)Cc3ccccc3)cc2[nH]c1=O` (centres unmarked) [Compound 189], the IC50 (Alamar Blue) was 1260 nM.

`CCc1cc2ccc(C(C)(C#N)C(C)c3ccccc3)cc2[nH]c1=O` (centres unmarked) [Compound 198]: where the note is “Alamar Blue”, the IC50 was 2000 nM.

For `CCc1cc2ccc([C@](C)(C#N)[C@@H](C)c3ccccc3)cc2[nH]c1=O` [Compound 199], the IC50 (Alamar Blue) was 10000 nM.

As to `CCc1cc2ccc([C@](C)(C#N)[C@H](C)c3ccccc3)cc2[nH]c1=O` [Compound 200], where the note is “Alamar Blue”, the IC50 is 1580 nM.

`CCc1cc2ccc(C(C)(C#N)Cc3cccc(C#C[Si](C)(C)C)n3)cc2[nH]c1=O` (centres unmarked) [Compound 210]: the IC50 (Alamar Blue) is 501 nM.

As to `C#Cc1cccc(CC(C)(C#N)c2ccc3cc(CC)c(=O)[nH]c3c2)n1` (centres unmarked) [Compound 211], the IC50 (Alamar Blue) was 316 nM.

As for `CCc1cc2ccc(C(C)(C#N)Cc3cccc(N(C)C)n3)cc2[nH]c1=O` (centres unmarked) [Compound 213], for the setting “Alamar Blue”, the IC50 is 501 nM.

`CCc1cc2ccc(C(C)(C#N)Cc3cccc(I)n3)cc2[nH]c1=O` (centres unmarked) [Compound 214]: where the note is “Alamar Blue”, the IC50 was 501 nM.

Turning to `CCOC(=O)c1cccc(CC(C)(C#N)c2ccc3cc(CC)c(=O)[nH]c3c2)n1` (centres unmarked) [Compound 215], for the setting “Alamar Blue”, the IC50 was 1580 nM.

On to `CCc1cc2ccc(C(C)(C#N)Cc3cccc(COC)n3)cc2[nH]c1=O` (centres unmarked) [Compound 216], for which the IC50 (Alamar Blue) is 2000 nM.

On to `CCc1cc2ccc(C(C)(C#N)Cc3cccc(OCCOC)n3)cc2[nH]c1=O` (centres unmarked) [Compound 219], for which the IC50 (Alamar Blue) is 5010 nM.

For `CCc1cc2ccc(C(C)(C#N)Cc3cccc(CN)n3)cc2[nH]c1=O` (centres unmarked) [Compound 221], where the note is “Alamar Blue”, the IC50 is 1260 nM.

With `CCc1cc2ccc(C(C)(C#N)Cc3cccc(OCCO)c3)cc2[nH]c1=O` (centres unmarked) [Compound 262], the IC50 (Alamar Blue) is 251 nM.

For the molecule `CCc1cc2ccc(C(C)(C#N)CCOc3cccc(C(F)(F)F)c3)cc2[nH]c1=O` (centres unmarked) [Compound 274], where the note is “Alamar Blue”, the IC50 is 6310 nM.

Regarding `CCc1cc2ccc(C(C)(C#N)Cc3cccc(CN)c3)cc2[nH]c1=O` (centres unmarked) [Compound 290], the IC50 (Alamar Blue) is 158 nM.

Regarding `CCc1cc2ccc(C(C)(C#N)Cc3cccc(/C=C/S(C)(=O)=O)c3)cc2[nH]c1=O` (centres unmarked) [Compound 292], where the note is “Alamar Blue”, the IC50 was 501 nM.

For `CCc1c(Cl)c2ccc(C(C)(C#N)Cc3cccc(C#N)c3)cc2[nH]c1=O` (centres unmarked) [Compound 293], the IC50 (Alamar Blue) is 794 nM.

Consider `CCc1cc2cc(OC)c(C(C)(C#N)Cc3ccccc3)cc2[nH]c1=O` (centres unmarked) [Compound 294], for which the IC50 (Alamar Blue) is 6310 nM.

Consider `CCc1cc2ccc(C(C)(C#N)Cc3cccc(C#CCOC)c3)cc2[nH]c1=O` (centres unmarked) [Compound 297], for which the IC50 (Alamar Blue) is 398 nM.

In the case of `CCc1cc2ccc(C(C)(C#N)Cc3cccc(C#CCN(C)C)c3)cc2[nH]c1=O` (centres unmarked) [Compound 298], the IC50 (Alamar Blue) is 2510 nM.

In the case of `CCc1cc2ccc(C(C)(C#N)CNCc3cccc(C#N)c3)cc2[nH]c1=O` (centres unmarked) [Compound 301], the IC50 (Alamar Blue) is 3980 nM.

With `CCc1cc2ccc(C(C)(C#N)Cc3cnc(Cl)nc3Cl)cc2[nH]c1=O` (centres unmarked) [Compound 306], where the note is “Alamar Blue”, the IC50 is 2000 nM.

With `COc1cc(OC)nc(CC(C)(C#N)c2ccc3cc(C)c(=O)[nH]c3c2)n1` (centres unmarked) [Compound 308], the IC50 (Alamar Blue) was 316 nM.

Consider `CCOc1cc(OCC)nc(CC(C)(C#N)c2ccc3cc(CC)c(=O)[nH]c3c2)n1` (centres unmarked) [Compound 309], for which the IC50 (Alamar Blue) is 1000 nM.

In the case of `CCc1cc2ccc(C(C)(C#N)Cc3cccc(Cl)n3)cc2[nH]c1=O` (centres unmarked) [Compound 310], the IC50 (Alamar Blue) was 501 nM.

As to `CCc1cc2ccc(C(C)(C#N)Cc3ncc(C)c(OC)c3C)cc2[nH]c1=O` (centres unmarked) [Compound 311], where the note is “Alamar Blue”, the IC50 was 3160 nM.

In the case of `CCc1cc2ccc(C(C)(C#N)Cc3ccc(C)nc3)cc2[nH]c1=O` (centres unmarked) [Compound 327], the IC50 (Alamar Blue) is 2000 nM.

With `CCc1cc2ccc(C(C)(C#N)Cc3cccc(C#N)n3)cc2[nH]c1=O` (centres unmarked) [Compound 329], the IC50 (Alamar Blue) is 316 nM.

In the case of `CCCn1ccnc1CC(C)(C#N)c1ccc2cc(CC)c(=O)[nH]c2c1` (centres unmarked) [Compound 335], the IC50 (Alamar Blue) was 5010 nM.

With `CCc1cc2ccc(C(C)(C#N)Cc3ccc4ccccc4n3)cc2[nH]c1=O` (centres unmarked) [Compound 336], where the note is “Alamar Blue”, the IC50 was 2510 nM.

`CCc1cc2ccc(C(C)(C#N)Cc3nccn3CC)cc2[nH]c1=O` (centres unmarked) [Compound 337]: the IC50 (Alamar Blue) is 5010 nM.

As to `CCc1cc2ccc(C(C)(C#N)Cc3nc4ccccc4n3C)cc2[nH]c1=O` (centres unmarked) [Compound 338], the IC50 (Alamar Blue) was 1580 nM.

For the molecule `CCc1cc2ccc(C(C)(C#N)Cc3cccc(C)n3)cc2[nH]c1=O` (centres unmarked) [Compound 343], the IC50 (Alamar Blue) was 794 nM.

As to `CCc1cc2ccc(C(C)(C#N)Cc3cccc(Br)n3)cc2[nH]c1=O` (centres unmarked) [Compound 344], for the setting “Alamar Blue”, the IC50 is 316 nM.

As for `CCc1cc2ccc(C(C)(C#N)Cc3cccc(CO)n3)cc2[nH]c1=O` (centres unmarked) [Compound 345], the IC50 (Alamar Blue) was 2000 nM.

Take `CCc1cc2ccc(C(C)(C#N)Cc3ccc(OC)nc3)cc2[nH]c1=O` (centres unmarked) [Compound 352]: the IC50 (Alamar Blue) was 1260 nM.

As to `CCc1cc2ccc(C(C)(C#N)Cc3cccc(OC)n3)cc2[nH]c1=O` (centres unmarked) [Compound 353], the IC50 (Alamar Blue) was 200 nM.

For `CCc1cc2ccc(C(C)(C#N)Cc3cnc(OC)nc3Cl)cc2[nH]c1=O` (centres unmarked) [Compound 356], the IC50 (Alamar Blue) was 631 nM.

In the case of `CCc1cc2ccc(C(C)(C#N)Cc3cnc(OC)nc3OC)cc2[nH]c1=O` (centres unmarked) [Compound 357], the IC50 (Alamar Blue) is 398 nM.

For `CCc1cc2ccc(C(C)(C#N)Cc3cc(OC)nc(OC)n3)cc2[nH]c1=O` (centres unmarked) [Compound 358], the IC50 (Alamar Blue) was 3160 nM.

Turning to `CCc1cc2ccc(C(C)(C#N)Cc3nc(Cl)cc(N(C)C)n3)cc2[nH]c1=O` (centres unmarked) [Compound 359], the IC50 (Alamar Blue) was 200 nM.

As to `CCc1cc2ccc(C(C)(C#N)Cc3nccc(OC)n3)cc2[nH]c1=O` (centres unmarked) [Compound 360], the IC50 (Alamar Blue) is 1260 nM.

For the molecule `CCc1cc2ccc(C(C)(C#N)Cc3cc(OCCOC)nc(C)n3)cc2[nH]c1=O` (centres unmarked) [Compound 363], under “Alamar Blue”, the IC50 is 5010 nM.

On to `CCc1cc2ccc(C(C)(C#N)Cc3cc(N(C)C)nc(Cl)n3)cc2[nH]c1=O` (centres unmarked) [Compound 364], for which, where the note is “Alamar Blue”, the IC50 is 1260 nM.
